Laboratory results: patent US8217043B2, “Compounds and methods for their use” (Fibrogen, Inc., priority 2008, dated 2012)

Target: T1, HIF-PH2 (EGLN1) (Homo sapiens, UniProt Q9GZT9)
T1 construct: made in house; host or cells: insect Hi5 cells
Experiment: HIF-PH assay (14CO2 capture, peptide-dependent turnover)
Type: biochemical
Details: for inhibition at 67 µM: Concentration 67 μM; for inhibition at 200 µM: Concentration 200 μM; for inhibition at 50 µM: Concentration 50 μM; for inhibition at 125 µM: Concentration 125 μM
Description: Ketoglutaric acid α-[1-^14C]-sodium salt, alpha-ketoglutaric acid sodium salt, and HPLC purified peptide may be obtained from commercial sources, e.g., Perkin-Elmer (Wellesley Mass.), Sigma-Aldrich, and SynPep Corp. (Dublin Calif.), respectively. Peptides for use in the assay may be fragments of HIFα as described above or as disclosed in International Publication WO 2005/118836, incorporated by reference herein. HIF-PH, e.g., HIF-PH2 (EGLN1), can be expressed in, e.g., insect Hi5 cells, and partially purified, e.g., through a SP ion exchange chromatography column. Enzyme activity is determined by capturing ^14CO2 using an assay described by Kivirikko and Myllyla (1982, Methods Enzymol. 82:245-304). Assay reactions contain 50 mM HEPES (pH 7.4), 100 μM α-ketoglutaric acid sodium salt, 0.30 μCi/mL ketoglutaric acid α-[1-^14C]-sodium salt, 40 μM FeSO4, 1 mM ascorbate, 1541.8 units/mL Catalase, with or without 50 μM peptide substrate and various concentrations of compound of the invention. Reactions are initiated by addition of HIF-PH enzyme.
The peptide-dependent percent turnover is calculated by subtracting percent turnover in the absence of peptide from percent turnover in the presence of substrate peptide. Percent inhibition and IC50 are calculated using peptide-dependent percent turnover at given inhibitor concentrations. Calculation of IC50 values for each inhibitor is conducted using GraFit software (Erithacus Software Ltd., Surrey UK).
Representative compounds of the invention were analyzed using the HIF-PH assay described above. Table 1 presents enzyme inhibition data for exemplary compounds against HIF-PH2, a representative HIF prolyl hydroxylase. By inhibiting HIF prolyl hydroxylase, compounds of the invention stabilize HIFα, which then combines with HIFβ to form an active transcription factor that increases expression of various genes involved in numerous beneficial cellular processes.

T1 sequence (Q9GZT9 whole entry, species assumed): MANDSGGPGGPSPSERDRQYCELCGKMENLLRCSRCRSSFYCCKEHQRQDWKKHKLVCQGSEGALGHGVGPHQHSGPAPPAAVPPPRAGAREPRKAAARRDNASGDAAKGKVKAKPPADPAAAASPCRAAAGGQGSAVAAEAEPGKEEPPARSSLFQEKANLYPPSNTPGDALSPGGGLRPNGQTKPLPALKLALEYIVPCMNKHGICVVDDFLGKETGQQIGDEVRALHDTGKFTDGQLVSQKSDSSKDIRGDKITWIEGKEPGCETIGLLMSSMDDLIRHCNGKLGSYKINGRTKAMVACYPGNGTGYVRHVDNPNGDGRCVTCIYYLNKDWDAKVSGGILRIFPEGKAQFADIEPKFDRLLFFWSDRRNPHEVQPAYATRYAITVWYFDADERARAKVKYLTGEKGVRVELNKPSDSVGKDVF

## CC[C@H](NC(=O)c1c(O)c2cc(Cl)cn2n(Cc2ccc(Cl)cc2)c1=O)C(=O)O [Example 30, 2-(S)-{[6-Chloro-1-(4-chloro-benzyl)-4-hydroxy-2-oxo-1,2-dihydro-pyrrolo[1,2-b]pyridazine-3-carbonyl]-amino}-butyric acid]
  inhibition at 67 µM: 94%

## O=C(O)CNC(=O)c1c(O)c2cccn2n(Cc2ccc(Cl)cc2)c1=O [Example 11, {[1-(4-Chloro-benzyl)-4-hydroxy-2-oxo-1,2-dihydro-pyrrolo[1,2-b]pyridazine-3-carbonyl]-amino}-acetic acid]
  inhibition at 200 µM: 100%

## O=C(O)CNC(=O)c1c(O)c2cc(Cl)cn2n(Cc2ccc(F)cc2)c1=O [Example 26, {[6-Chloro-4-hydroxy-2-oxo-1-(4-fluoro-benzyl)-1,2-dihydro-pyrrolo[1,2-b]pyridazine-3-carbonyl]-amino}-acetic acid]
  inhibition at 67 µM: 98%

## O=C(O)CNC(=O)c1c(O)c2cc(Cl)cn2n(Cc2ccc(Cl)cc2)c1=O [Example 28, {[6-Chloro-1-(4-chloro-benzyl)-4-hydroxy-2-oxo-1,2-dihydro-pyrrolo[1,2-b]pyridazine-3-carbonyl]-amino}-acetic acid]
  inhibition at 67 µM: 100%

## C[C@H](NC(=O)c1c(O)c2cccn2n(Cc2ccc(C(F)(F)F)cc2)c1=O)C(=O)O [Example 24, 2-(S)-{[4-Hydroxy-2-oxo-1-(4-trifluoromethyl-benzyl)-1,2-dihydro-pyrrolo[1,2-b]pyridazine-3-carbonyl]-amino}-propionic acid]
  inhibition at 50 µM: 98%

## O=C(O)CNC(=O)c1c(O)c2cc3ccc(C(F)(F)F)cc3n2n(Cc2ccc(F)cc2)c1=O [Example 43, {[4-(4-Fluoro-benzyl)-1-hydroxy-3-oxo-6-trifluoromethyl-3,4-dihydro-4,4a-diaza-fluorene-2-carbonyl]-amino}-acetic acid]
  inhibition at 50 µM: 99%

## O=C(O)CNC(=O)c1c(O)c2cc3ccccc3n2n(Cc2ccc(F)cc2)c1=O [Example 18, {[4-(4-Fluoro-benzyl)-1-hydroxy-3-oxo-3,4-dihydro-4,4a-diaza-fluorene-2-carbonyl]-amino}-acetic acid]
  inhibition at 50 µM: 96%

## O=C(O)CNC(=O)c1c(O)c2cccn2n(Cc2ccc(C(F)(F)F)cc2)c1=O [Example 10, {[1-(4-Trifluoromethyl-benzyl)-4-hydroxy-2-oxo-1,2-dihydro-pyrrolo[1,2-b]pyridazine-3-carbonyl]-amino}-acetic acid]
  inhibition at 200 µM: 100%

## O=C(O)CNC(=O)c1c(O)c2c(Cl)c(Cl)c(Cl)n2n(Cc2ccccc2)c1=O [Example 2, [(1-Benzyl-5,6,7-trichloro-4-hydroxy-2-oxo-1,2-dihydro-pyrrolo[1,2-b]pyridazine-3-carbonyl)-amino]-acetic acid]
Concentration 22 μM
  inhibition at 22 µM: 99%

## O=C(O)CNC(=O)c1c(O)c2cccn2n(Cc2cccc(F)c2)c1=O [Example 14, {[1-(3-Fluoro-benzyl)-4-hydroxy-2-oxo-1,2-dihydro-pyrrolo[1,2-b]pyridazine-3-carbonyl]-amino}-acetic acid]
  inhibition at 125 µM: 98%

## C[C@@H](NC(=O)c1c(O)c2cc(Cl)cn2n(Cc2ccc(-c3ccccc3)cc2)c1=O)C(=O)O [Example 36, 2-(R)-{[6-Chloro-1-(4-phenyl-benzyl)-4-hydroxy-2-oxo-1,2-dihydro-pyrrolo[1,2-b]pyridazine-3-carbonyl]-amino}-propionic acid]
  inhibition at 67 µM: 98%

## O=C(O)CNC(=O)c1c(O)c2cc(Cl)cn2n(Cc2ccc(C(F)(F)F)cc2)c1=O [Example 22, {[6-Chloro-4-hydroxy-2-oxo-1-(4-trifluoromethyl-benzyl)-1,2-dihydro-pyrrolo[1,2-b]pyridazine-3-carbonyl]-amino}-acetic acid]
  inhibition at 50 µM: 98%

## O=C(O)CNC(=O)c1c(O)c2cccn2n(Cc2ccccc2F)c1=O [Example 5, {[1-(2-Fluoro-benzyl)-4-hydroxy-2-oxo-1,2-dihydro-pyrrolo[1,2-b]pyridazine-3-carbonyl]-amino}-acetic acid]
  inhibition at 125 µM: 96%

## C[C@H](NC(=O)c1c(O)c2cc(Cl)cn2n(Cc2ccc(F)cc2)c1=O)C(=O)O [Example 27, 2-(S)-{[6-Chloro-1-(4-fluoro-benzyl)-4-hydroxy-2-oxo-1,2-dihydro-pyrrolo[1,2-b]pyridazine-3-carbonyl]-amino}-propionic acid]
  inhibition at 67 µM: 95%

## C[C@H](NC(=O)c1c(O)c2cc3ccc(C(F)(F)F)cc3n2n(Cc2ccc(F)cc2)c1=O)C(=O)O [Example 44, 2-(S)-{[4-(4-Fluoro-benzyl)-1-hydroxy-3-oxo-6-trifluoromethyl-3,4-dihydro-4,4a-diaza-fluorene-2-carbonyl]-amino}-propionic acid]
  inhibition at 67 µM: 89%

## C[C@H](NC(=O)c1c(O)c2cc(Cl)cn2n(Cc2ccc(Cl)cc2)c1=O)C(=O)O [Example 29, 2-(S)-{[6-Chloro-1-(4-chloro-benzyl)-4-hydroxy-2-oxo-1,2-dihydro-pyrrolo[1,2-b]pyridazine-3-carbonyl]-amino}-propionic acid]
  inhibition at 67 µM: 100%

## COc1ccc(Cn2c(=O)c(C(=O)NCC(=O)O)c(O)c3cccn32)cc1 [Example 12, {[1-(4-Methoxy-benzyl)-4-hydroxy-2-oxo-1,2-dihydro-pyrrolo[1,2-b]pyridazine-3-carbonyl]-amino}-acetic acid]
  inhibition at 200 µM: 100%

## O=C(O)CNC(=O)c1c(O)c2cccn2n(Cc2cccc(Cl)c2)c1=O [Example 8, {[1-(3-Chloro-benzyl)-4-hydroxy-2-oxo-1,2-dihydro-pyrrolo[1,2-b]pyridazine-3-carbonyl]-amino}-acetic acid]
  inhibition at 200 µM: 100%

## C[C@H](NC(=O)c1c(O)c2cc(Cl)cn2n(Cc2ccc(C(F)(F)F)cc2)c1=O)C(=O)O [Example 23, 2-(S)-{[6-Chloro-4-hydroxy-2-oxo-1-(4-trifluoromethyl-benzyl)-1,2-dihydro-pyrrolo[1,2-b]pyridazine-3-carbonyl]-amino}-propionic acid]
  inhibition at 50 µM: 98%

## O=C(O)CNC(=O)c1c(O)c2cccn2n(Cc2ccc(F)cc2)c1=O [Example 3, {[1-(4-Fluoro-benzyl)-4-hydroxy-2-oxo-1,2-dihydro-pyrrolo[1,2-b]pyridazine-3-carbonyl]-amino}-acetic acid]
  inhibition at 200 µM: 100%

## O=C(O)CNC(=O)c1c(O)c2cccn2n(Cc2ccccc2)c1=O [Example 1, [(1-Benzyl-4-hydroxy-2-oxo-1,2-dihydro-pyrrolo[1,2-b]pyridazine-3-carbonyl)-amino]-acetic acid]
  inhibition at 200 µM: 100%

## CC[C@H](NC(=O)c1c(O)c2cc(Cl)cn2n(Cc2ccc(OC)cc2)c1=O)C(=O)O [Example 33, 2-(S)-{[6-Chloro-1-(4-methoxy-benzyl)-4-hydroxy-2-oxo-1,2-dihydro-pyrrolo[1,2-b]pyridazine-3-carbonyl]-amino}-butyric acid]
  inhibition at 67 µM: 88%

## O=C(O)CNC(=O)c1c(O)c2cc(-c3ccccc3)cn2n(Cc2ccc(C(F)(F)F)cc2)c1=O [Example 37, {[4-Hydroxy-2-oxo-6-phenyl-1-(4-trifluoromethyl-benzyl)-1,2-dihydro-pyrrolo[1,2-b]pyridazine-3-carbonyl]-amino}-acetic acid]
  inhibition at 67 µM: 99%

## COc1ccc(Cn2c(=O)c(C(=O)N[C@@H](C)C(=O)O)c(O)c3cc(Cl)cn32)cc1 [Example 32, 2-(S)-{[6-Chloro-1-(4-methoxy-benzyl)-4-hydroxy-2-oxo-1,2-dihydro-pyrrolo[1,2-b]pyridazine-3-carbonyl]-amino}-propionic acid]
  inhibition at 67 µM: 97%

## CCCCn1c(=O)c(C(=O)NCC(=O)O)c(O)c2cccn21 [Example 17, [(1-Butyl-4-hydroxy-2-oxo-1,2-dihydro-pyrrolo[1,2-b]pyridazine-3-carbonyl)-amino]-acetic acid]
  inhibition at 50 µM: 97%

## O=C(O)CNC(=O)c1c(O)c2cc(Cl)cn2n(Cc2cccnc2)c1=O [Example 38, [(6-Chloro-4-hydroxy-2-oxo-1-pyridin-3-ylmethyl-1,2-dihydro-pyrrolo[1,2-b]pyridazine-3-carbonyl)-amino]-acetic acid]
  inhibition at 67 µM: 99%

## C[C@H](NC(=O)c1c(O)c2cc(Cl)cn2n(Cc2ccc(-c3ccccc3)cc2)c1=O)C(=O)O [Example 35, 2-(S)-[(1-Biphenyl-4-ylmethyl-6-chloro-4-hydroxy-2-oxo-1,2-dihydro-pyrrolo[1,2-b]pyridazine-3-carbonyl)-amino]-propionic acid]
  inhibition at 67 µM: 100%

## O=C(O)CNC(=O)c1c(O)c2cc(Cl)cn2n(Cc2ccccn2)c1=O [Example 40, [(6-Chloro-4-hydroxy-2-oxo-1-pyridin-2-ylmethyl-1,2-dihydro-pyrrolo[1,2-b]pyridazine-3-carbonyl)-amino]-acetic acid]
  inhibition at 50 µM: 95%

## O=C(O)CNC(=O)c1c(O)c2cccn2n(Cc2cccc(C(F)(F)F)c2)c1=O [Example 13, {[1-(3-Trifluoromethyl-benzyl)-4-hydroxy-2-oxo-1,2-dihydro-pyrrolo[1,2-b]pyridazine-3-carbonyl]-amino}-acetic acid]
  inhibition at 125 µM: 97%
